Legend:
[1] = system: HCC827 cells (EGFR delE746-A750); assay: Cell proliferation (CellTiter Glo, 72 hr), HCC827 cells; assay type: cell-based, human; conditions: proliferation, WT EGFR (A431) vs HCC827
Experimental: (§1) A431 human epidermoid carcinoma, H1975 human NSCLC and HCC827 human NSCLC adenocarcinoma cells were obtained from the American Type Culture Center (Manassas, Va.). A431 cells were grown in DMEM (Invitrogen, Carlsbad, Calif.) supplemented with 10% FBS (HyClone, South Logan, Utah) and 1% Penicillin-Streptomycin (P/S, Lonza, Walkersville, Md.).
(§2) Cells were plated in Growth Media supplemented with 5% FBS and 1% P/S at a density of 3,000 cells per well in 96 well tissue culture plates (Corning). […] Growth inhibition (GI50) values were determined by Graph Pad Prism.

[2] = system: H1975 cells (EGFR L858R/T790M); assay: Cell proliferation (CellTiter Glo, 72 hr), H1975 cells; assay type: cell-based, human; conditions: proliferation, WT EGFR (A431) vs H1975
Experimental: as §1, §2

[3] = molecular target: EGFR L858R/T790M (H1975 cells) (Homo sapiens (Human), UniProt P00533, L858R/T790M); assay: Phospho-EGFR signaling immunoblot (1 hr), H1975 cells; assay type: cell-based; conditions: WT EGFR (A431) vs H1975
Experimental: as §1
All primary antibodies were obtained from Cell Signaling (Danvers, Mass.) and used at 1:1000. Secondary antibodies were used at 1:10,000. Goat anti-mouse IgG IRDye 800CW antibody was obtained from LiCor Biosciences (Lincoln, Nebr.) and goat anti-rabbit IgG Alexa Fluor 680 was obtained from Invitrogen.
Cells were grown in 12-well plates (Corning, Coring, N.Y.) to 90% confluence and then incubated in low-serum (0.1% FBS) media for 16-18 hr. […] A431 cells were then stimulated with 50 ng/ml EGF (Peprotech, Rocky Hill, N.J.) for 15 min. After treatment, cell monolayers were washed with cold PBS (Invitrogen) and immediately lysed by scrapping into 60 uL cold Cell Extraction Buffer (Invitrogen) supplemented with Complete Protease inhibitors (Roche, Indianapolis, Ind.) and PhosphoSTOP (Roche) phosphatase inhibitors.
Phospho-protein signals were quantitated using Odyssey Infrared Imaging (Li-Cor Biosciences).
To assess phosphor-EGFR signaling, blots were probed with rabbit anti-Phospho-EGFR (Y1068) and mouse total anti-EGFR antibodies. Phospho-EGFR signal was normalized to total EGFR expression for each sample. […] Normalized data was fitted using a sigmoidal curve analysis program (Graph Pad Prism version 5) with variable Hill slope to determine the EC50 values.

| SMILES | Ratio WT/mutant [1] | Ratio WT/mutant [2] | Ratio WT/mutant [3] |
| --- | --- | --- | --- |
| C=CC(=O)Nc1cccc(Nc2nc(Nc3ccc(N4CCCN(C(=O)OC(C)(C)C)CC4)cc3OC)ncc2C(F)(F)F)c1 [Compound I-44, tert-butyl 4-(4-(4-(3-acrylamidophenylamino)-5-(trifluoromethyl)pyrimidin-2-ylamino)-3-methoxyphenyl)-1,4-diazpane-1-carboxylate] | >5 | >5 | >5 |
| C=CC(=O)Nc1cccc(Nc2nc(Nc3ccc(N4CCN(C(=O)CO)CC4)cc3OC)ncc2Cl)c1 [Compound I-12, N-(3-(5-chloro-2-(4-(4-(2-hydroxyacetyl)piperazin-1-yl)-2-methoxyphenylamino)pyrimidin-4-ylamino)phenyl)acrylamide] | >30 | >1 | >1 |
| C=CC(=O)Nc1cccc(Oc2nc(Nc3ccc(N4CCN(S(C)(=O)=O)CC4)cc3OC)ncc2C(F)(F)F)c1 [Compound I-22, N-(3-(2-(2-methoxy-4-(4-(methylsulfonyl)piperazin-1-yl)phenylamino)-5-(trifluoromethyl)pyrimidin-4-yloxy)phenyl)acrylamide] | >35 | >10 | >35 |
| C=CC(=O)Nc1cccc(Oc2nc(Nc3ccc(N4CCN(C(=O)NC)CC4)cc3OC)ncc2C(F)(F)F)c1 [Compound I-21, 4-(4-(4-(3-acrylamidophenoxy)-5-(trifluoromethyl)pyrimidin-2-ylamino)-3-methoxyphenyl)-N-methylpiperazine-1-carboxamide] | >20 | >1 | >5 |
| C=CC(=O)Nc1cccc(Oc2nc(Nc3ccc(N4CCOCC4)cc3OC)ncc2Cl)c1 [Compound I-5, N-(3-(5-chloro-2-(2-methoxy-4-morpholinophenylamino)pyrimidin-4-yloxy)phenyl)acrylamide] | >20 | >5 | >30 |
| C=CC(=O)Nc1cccc(Nc2nc(Nc3ccc(N4CCS(=O)(=O)CC4)cc3OC)ncc2C(F)(F)F)c1 [Compound I-49, N-(3-(2-(2-methoxy-4,4-dioxo-4-thiomorpholinophenylamino)-5-(trifluoromethyl)pyrimidin-4-ylamino)phenyl)acrylamide] | >25 | >10 | >20 |
| C=CC(=O)Nc1cccc(Nc2nc(Nc3ccc(N4CCN(C(C)=O)CC4)cc3OC(F)(F)F)ncc2C(F)(F)F)c1 [Compound I-33, N-(3-(2-(4-(4-acetylpiperazin-1-yl)-2-(trifluoromethoxy)phenylamino)-5-(trifluoromethyl)pyrimidin-4-ylamino)phenyl)acrylamide] | >15 | >30 | >50 |
| C=CC(=O)Nc1cccc(Nc2nc(Nc3ccc(N4CCN(S(C)(=O)=O)CC4)cc3OC)ncc2Cl)c1 [Compound I-41, N-(3-(5-chloro-2-(2-methoxy-4-(4-(methylsulfonyl)piperazin-1-yl)phenylamino)pyrimidin-4-ylamino)phenyl)acrylamide] | >20 | >1 | >1 |
| C=CC(=O)Nc1cccc(Nc2nc(Nc3ccc(N4CCN(C(C)=O)CC4)cc3OC)ncc2Cl)c1 [Compound I-8, N-(3-(2-(4-(4-acetylpiperazin-1-yl)-2-methoxyphenylamino)-5-chloropyrimidin-4-ylamino)phenyl)acrylamide] | >20 | >1 | >1 |
| C=CC(=O)Nc1cccc(Nc2nc(Nc3ccc(N4CCN(C(=O)CO)CC4)cc3OC)ncc2C(F)(F)F)c1 [Compound I-6, N-(3-(2-(4-(4-(2-hydroxyacetyl)piperazin-1-yl)-2-methoxyphenylamino)-5-(trifluoromethyl)pyrimidin-4-ylamino)phenyl)acrylamide] | >40 | >10 | >20 |

Source: patent publication US11096942B2, “Heterocyclic compounds and uses thereof” (Celgene CAR LLC, priority 2010, dated 2021)
